≈ marks a conversion by molar mass, not a printed value.
Key:
[1] = tested on: Nakaseomyces glabratus; experiment: Antifungal activity against Candida glabrata assessed as inhibition of fungal growth by CLSI protocol based microdilution method; type: functional
[2] = tested on: Candida albicans; experiment: Antifungal activity against fluconazole-resistant Candida albicans CaR assessed as inhibition of fungal growth by CLSI based microdilution method; type: functional
[3] = tested on: Candida albicans; experiment: Antifungal activity against fluconazole-resistant Candida albicans 901 assessed as inhibition of fungal growth by CLSI based microdilution method; type: functional
[4] = tested on: Candida albicans; experiment: Antifungal activity against fluconazole-resistant Candida albicans 17 assessed as inhibition of fungal growth by CLSI based microdilution method; type: functional
[5] = tested on: Candida albicans; experiment: Antifungal activity against fluconazole-resistant Candida albicans 632 assessed as inhibition of fungal growth by CLSI based microdilution method; type: functional
[6] = tested on: Pichia kudriavzevii; experiment: Antifungal activity against Candida krusei AS 2.1045 assessed as inhibition of fungal growth by CLSI protocol based microdilution method; type: functional
[7] = tested on: Candida parapsilosis; experiment: Antifungal activity against Candida parapsilosis ATCC 22019 assessed as inhibition of fungal growth by CLSI protocol based microdilution method; type: functional; conditions: Lodderomyces parapsilosis
[8] = tested on: Candida tropicalis; experiment: Antifungal activity against Candida tropicalis CGMCC 2.3739 assessed as inhibition of fungal growth by CLSI protocol based microdilution method; type: functional
[9] = tested on: Candida albicans; experiment: Antifungal activity against Candida albicans SC5314 assessed as inhibition of fungal growth by CLSI protocol based microdilution method; type: functional
[10] = tested on: Candida albicans; experiment: Antifungal activity against Candida albicans CPCC400616 assessed as inhibition of fungal growth by CLSI protocol based microdilution method; type: functional
[11] = tested on: Cryptococcus neoformans; experiment: Antifungal activity against Cryptococcus neoformans CGMCC2.3161 assessed as inhibition of fungal growth by CLSI protocol based microdilution method; type: functional
[12] = tested on: Candida albicans; experiment: Antifungal activity against fluconazole-resistant Candida albicans 904 assessed as inhibition of fungal growth by CLSI based microdilution method; type: functional
[13] = tested on: Aspergillus fumigatus; experiment: Antifungal activity against Aspergillus fumigatus CGMCC 3.7795 assessed as inhibition of fungal growth by CLSI protocol based microdilution method; type: functional
[14] = Half life in mouse plasma measured at 180 mins; type: ADME, cell-free

SMILES | MIC [1] [µg/mL] | MIC [2] [µg/mL] | MIC [3] [µg/mL] | MIC [4] [µg/mL] | MIC [5] [µg/mL] | MIC [6] [µg/mL] | MIC [7] [µg/mL] | MIC [8] [µg/mL] | MIC [9] [µg/mL] | MIC [10] [µg/mL] | MIC [11] [µg/mL] | MIC [12] [µg/mL] | MIC [13] [µg/mL] | half-life [14] [h]
Cc1ccccc1NC(=O)/C=C/c1ccc(COC(Cn2ccnc2)c2ccc(Cl)cc2Cl)cc1 (stereo not drawn) | 64 (≈ 126 µM) | 16 (≈ 31.6 µM) | 4 (≈ 7.9 µM) | 128 (≈ 253 µM) | 2 (≈ 3.95 µM) | 16 (≈ 31.6 µM) | 0.5 (≈ 0.987 µM) | 16 (≈ 31.6 µM) | 0.03 (≈ 0.0592 µM) | 0.125 (≈ 0.247 µM) | 2 (≈ 3.95 µM) | 2 (≈ 3.95 µM) | 2 (≈ 3.95 µM) | –
O=C(/C=C/c1ccc(COC(Cn2ccnc2)c2ccc(Cl)cc2Cl)cc1)Nc1ccc(C(F)(F)F)cc1 (stereo not drawn) | 32 (≈ 57.1 µM) | 64 (≈ 114 µM) | 16 (≈ 28.6 µM) | 128 (≈ 228 µM) | 2 (≈ 3.57 µM) | 64 (≈ 114 µM) | 0.5 (≈ 0.892 µM) | 64 (≈ 114 µM) | 0.03 (≈ 0.0535 µM) | 0.03 (≈ 0.0535 µM) | 2 (≈ 3.57 µM) | 8 (≈ 14.3 µM) | 32 (≈ 57.1 µM) | –
O=C(/C=C/c1ccc(COC(Cn2ccnc2)c2ccc(Cl)cc2Cl)cc1)Nc1cccc(Cl)c1 (stereo not drawn) | 64 (≈ 121 µM) | 128 (≈ 243 µM) | 4 (≈ 7.59 µM) | 128 (≈ 243 µM) | 2 (≈ 3.8 µM) | 64 (≈ 121 µM) | 0.125 (≈ 0.237 µM) | 32 (≈ 60.7 µM) | 0.06 (≈ 0.114 µM) | 0.125 (≈ 0.237 µM) | 16 (≈ 30.4 µM) | 2 (≈ 3.8 µM) | 16 (≈ 30.4 µM) | –
COc1ccc(NC(=O)/C=C/c2ccc(COC(Cn3ccnc3)c3ccc(Cl)cc3Cl)cc2)cc1 (stereo not drawn) | 4 (≈ 7.66 µM) | 4 (≈ 7.66 µM) | 4 (≈ 7.66 µM) | 2 (≈ 3.83 µM) | 0.25 (≈ 0.479 µM) | 2 (≈ 3.83 µM) | 0.125 (≈ 0.239 µM) | 4 (≈ 7.66 µM) | 0.06 (≈ 0.115 µM) | 0.03 (≈ 0.0574 µM) | 0.125 (≈ 0.239 µM) | 4 (≈ 7.66 µM) | 4 (≈ 7.66 µM) | –
O=C(/C=C/c1ccc(COC(Cn2ccnc2)c2ccc(Cl)cc2Cl)cc1)Nc1ccc(Br)cc1 (stereo not drawn) | 8 (≈ 14 µM) | 16 (≈ 28 µM) | 8 (≈ 14 µM) | 32 (≈ 56 µM) | 4 (≈ 7 µM) | 16 (≈ 28 µM) | 0.25 (≈ 0.438 µM) | 32 (≈ 56 µM) | 0.03 (≈ 0.0525 µM) | 0.06 (≈ 0.105 µM) | 4 (≈ 7 µM) | 4 (≈ 7 µM) | 16 (≈ 28 µM) | –
O=c1ccc2ccc(COC(Cn3ccnc3)c3ccc(Cl)cc3Cl)cc2o1 (stereo not drawn) | 0.5 (≈ 1.2 µM) | 1 (≈ 2.41 µM) | 4 (≈ 9.63 µM) | 4 (≈ 9.63 µM) | 4 (≈ 9.63 µM) | 2 (≈ 4.82 µM) | 0.5 (≈ 1.2 µM) | 0.25 (≈ 0.602 µM) | 0.03 (≈ 0.0722 µM) | 0.06 (≈ 0.144 µM) | 2 (≈ 4.82 µM) | 1 (≈ 2.41 µM) | 1 (≈ 2.41 µM) | > 6
O=C(/C=C/c1ccc(COC(Cn2ccnc2)c2ccc(Cl)cc2Cl)cc1)Nc1ccccc1 (stereo not drawn) | 64 (≈ 130 µM) | 8 (≈ 16.2 µM) | 1 (≈ 2.03 µM) | 128 (≈ 260 µM) | 0.25 (≈ 0.508 µM) | 64 (≈ 130 µM) | 32 (≈ 65 µM) | 2 (≈ 4.06 µM) | 0.03 (≈ 0.0609 µM) | 0.06 (≈ 0.122 µM) | 1 (≈ 2.03 µM) | 0.5 (≈ 1.02 µM) | 1 (≈ 2.03 µM) | –
NC(=O)/C=C/c1ccc(COC(Cn2ccnc2)c2ccc(Cl)cc2Cl)cc1 (stereo not drawn) | 64 (≈ 154 µM) | 128 (≈ 307 µM) | 32 (≈ 76.9 µM) | 128 (≈ 307 µM) | 16 (≈ 38.4 µM) | 64 (≈ 154 µM) | 4 (≈ 9.61 µM) | 8 (≈ 19.2 µM) | 1 (≈ 2.4 µM) | 2 (≈ 4.8 µM) | 16 (≈ 38.4 µM) | 32 (≈ 76.9 µM) | 64 (≈ 154 µM) | –
O=C(/C=C/c1ccc(COC(Cn2ccnc2)c2ccc(Cl)cc2Cl)cc1)Nc1ccc(F)cc1 (stereo not drawn) | 32 (≈ 62.7 µM) | 4 (≈ 7.84 µM) | 1 (≈ 1.96 µM) | 128 (≈ 251 µM) | 0.25 (≈ 0.49 µM) | 64 (≈ 125 µM) | 32 (≈ 62.7 µM) | 2 (≈ 3.92 µM) | 0.03 (≈ 0.0588 µM) | 0.06 (≈ 0.118 µM) | 2 (≈ 3.92 µM) | 0.5 (≈ 0.98 µM) | 1 (≈ 1.96 µM) | –
